This note sets out measurements from the NIST ThermoML archive (doi:10.1016/j.jct.2006.02.008).

The structures appear in SMILES notation. ± gives the expanded uncertainty stated by the source.

Series [1] in a line: refractive index (Na D-line) (dimensionless). To be noted: 293.2 K; 101.33 kPa; Liquid; Standard Abbe refractometry.

As to `CCOC(=O)c1ccccc1C(=O)OCC` [diethyl phthalate], in series [1], the refractive index stood at 1.5016 ± 0.0007. The mass density (293.2 K, 101.33 kPa, Liquid, Pycnometric method) is on record as 1118.2 ± 1 kg/m3.
As to `O=C1C=CC(=O)O1` [maleic anhydride], under “Crystal, visual observation”, the Normal melting temperature was 52.7 ± 0.5 °C.
